How the values were obtained:
SIRT1 [1] = target: T1, SIRT1 (Homo sapiens, UniProt Q96EB6); test: TAMRA based mass spectrometry assay of SIRT1 activity; assay type: biochemical; conditions: for Emax: read-out: TAMRA % Fold Act
T1 sequence (Q96EB6 1-747): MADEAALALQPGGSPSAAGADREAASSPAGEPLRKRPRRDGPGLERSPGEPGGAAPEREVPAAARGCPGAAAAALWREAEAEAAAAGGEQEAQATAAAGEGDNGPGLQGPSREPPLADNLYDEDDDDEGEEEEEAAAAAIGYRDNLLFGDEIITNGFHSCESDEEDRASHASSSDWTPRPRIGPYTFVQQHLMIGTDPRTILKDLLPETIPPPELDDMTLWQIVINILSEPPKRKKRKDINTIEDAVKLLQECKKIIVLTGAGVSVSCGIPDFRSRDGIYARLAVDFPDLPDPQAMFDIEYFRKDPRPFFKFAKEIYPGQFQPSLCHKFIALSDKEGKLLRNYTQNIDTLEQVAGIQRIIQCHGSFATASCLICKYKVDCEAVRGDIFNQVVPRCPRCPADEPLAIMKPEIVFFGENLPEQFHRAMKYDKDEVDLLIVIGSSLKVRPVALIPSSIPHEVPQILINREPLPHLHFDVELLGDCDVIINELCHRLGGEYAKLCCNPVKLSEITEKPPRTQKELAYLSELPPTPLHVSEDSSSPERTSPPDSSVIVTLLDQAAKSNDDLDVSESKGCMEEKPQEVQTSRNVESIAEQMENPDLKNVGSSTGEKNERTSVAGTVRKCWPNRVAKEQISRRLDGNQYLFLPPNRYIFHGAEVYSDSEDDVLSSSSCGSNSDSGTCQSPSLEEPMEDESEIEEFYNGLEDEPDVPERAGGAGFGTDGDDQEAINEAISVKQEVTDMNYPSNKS
Method in brief: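 Deacetylation of a biotinylated, TAMRA-tagged p53-based peptide (0.5 μM) by 10 nM His-tagged SIRT1 with 120 μM βNAD+, 25 °C for 25 min, pH 8 Tris-acetate buffer, across a compound concentration range. Quenched by formic acid and read by mass spec as product peptide or OAADPR; activity relative to DMSO reactions, nicotinamide defining maximal inhibition.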

SIRT1 [2] = target: T1, SIRT1; test: Trp mass spectrometry assay of SIRT1 activity; assay type: biochemical; conditions: for Emax: read-out: Trp % Fold Act
Method in brief: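 Activation readout: EC1.5 (concentration raising activity 50% over control) and percent maximum activation, from mass-spec quantitation of OAADPR or deacetylated Trp peptide. Reaction: 0.5 μM acetylated Trp peptide, 120 μM βNAD+, 10 nM bacterially expressed N-His SIRT1, pH 7.5 HEPES buffer with […], 25 min at 25° C.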

[3] = TAMRA assay, concentration giving 150% activation of SIRT1
[4] = TAMRA assay, percent maximum fold activation
[5] = Trp assay, concentration giving 150% activation of SIRT1
[6] = Trp assay, percent maximum fold activation
[7] = TAMRA peptide substrate, concentration giving 150% activation of SIRT1
[8] = TAMRA peptide substrate, percent maximum fold activation
[9] = Trp peptide substrate, concentration giving 150% activation of SIRT1
[10] = Trp peptide substrate, percent maximum fold activation
[11] = concentration of test compound giving 150% activation of SIRT1, TAMRA peptide substrate
[12] = percent maximum fold activation of SIRT1, TAMRA peptide substrate
[13] = concentration of test compound giving 150% activation of SIRT1, Trp peptide substrate
[14] = percent maximum fold activation of SIRT1, Trp peptide substrate

SMILES	TAMRA EC1.5 (μM) (SIRT1 [1]; [3])	Emax (SIRT1 [1]; [4]) [%]	Trp EC1.5 (μM) (SIRT1 [2]; [5])	Emax (SIRT1 [2]; [6]) [%]	other results
O=C(Nc1ccccn1)c1cnc2ccc(-c3ccccc3OC[C@H](O)CO)nn12 [Compound 812]	A (EC1.5<1 μM)	≥ 350	A (EC1.5<1 μM)	≥ 350	
O=C(Nc1cccnn1)c1cnc2ccc(-c3ccccc3OC(F)(F)F)nn12 [Compound 395]	A (EC1.5<1 μM)	≥ 350	A (EC1.5<1 μM)	≥ 350	
Cc1nc2ccc(-c3ccccc3C(F)(F)F)nn2c1C(=O)Nc1ccncc1 [Compound 499]					TAMRA EC1.5 (SIRT1 [1]; [7]): A (EC1.5<1 μM); Emax (SIRT1 [1]; [8]): ≥ 350%; Trp EC1.5 (SIRT1 [2]; [9]): A (EC1.5<1 μM); Emax (SIRT1 [2]; [10]): ≥ 350%
Cc1nc(C(=O)Nc2cnc3c(C)cc(-c4ccccc4C(F)(F)F)nn23)c(C)s1 [Compound 413]					TAMRA EC1.5 (SIRT1 [1]; [7]): A (EC1.5<1 μM); Emax (SIRT1 [1]; [8]): ≥ 350%; Trp EC1.5 (SIRT1 [2]; [9]): A (EC1.5<1 μM); Emax (SIRT1 [2]; [10]): < 350%
O=C(Nc1ccnc(CN2CCOCC2)n1)c1cnc2ccc(-c3ccccc3C(F)F)nn12 [Compound 38]					TAMRA EC1.5 (μM) (SIRT1 [1]; [11]): B (EC1.5 1-25 μM); Emax (SIRT1 [1]; [12]): < 350%; Trp EC1.5 (μM) (SIRT1 [2]; [13]): C (EC1.5>25 μM); Emax (SIRT1 [2]; [14]): < 350%
O=C(Nc1cncc(F)c1)c1cnc2ccc(-c3ccccc3C(F)(F)F)nn12 [Compound 107]					TAMRA EC1.5 (μM) (SIRT1 [1]; [11]): B (EC1.5 1-25 μM); Emax (SIRT1 [1]; [12]): ≥ 350%; Trp EC1.5 (μM) (SIRT1 [2]; [13]): B (EC1.5 1-25 μM); Emax (SIRT1 [2]; [14]): < 350%
COCCOc1nccc(NC(=O)c2cnc3c(C)cc(-c4ccccc4C(F)(F)F)nn23)n1 [Compound 627]	A (EC1.5<1 μM)	≥ 350	A (EC1.5<1 μM)	≥ 350	
N#Cc1ccccc1-c1ccc2ncc(NC(=O)c3cscn3)n2n1 [Compound 332]	B (EC1.5 1-25 μM)	< 350	C (EC1.5>25 μM)	< 350	
Cc1nc(C(=O)Nc2c(C)nc3ccc(-c4ccccc4Cl)nn23)cs1 [Compound 351]	B (EC1.5 1-25 μM)	< 350	C (EC1.5>25 μM)	< 350	
Cc1cc(NC(=O)c2cnn3ccc(-c4ccccc4OC(F)(F)F)nc23)nc(C)n1 [Compound 659]	A (EC1.5<1 μM)	≥ 350	B (EC1.5 1-25 μM)	< 350	
Cc1nc2ccc(-c3ccccc3C(F)(F)F)nn2c1C(=O)Nc1cnccn1 [Compound 463]					TAMRA EC1.5 (SIRT1 [1]; [7]): A (EC1.5<1 μM); Emax (SIRT1 [1]; [8]): ≥ 350%; Trp EC1.5 (SIRT1 [2]; [9]): B (EC1.5 1-25 μM); Emax (SIRT1 [2]; [10]): ≥ 350%
Cc1nc2ccc(-c3cccc(OC[C@H](O)CO)c3)nn2c1C(=O)Nc1cccnn1 [Compound 597]	B (EC1.5 1-25 μM)	< 350	A (EC1.5<1 μM)	< 350	
Cc1nc(C(=O)Nc2cnn3ccc(-c4ccccc4OC(F)(F)F)nc23)c(C)s1 [Compound 713]	B (EC1.5 1-25 μM)	≥ 350	B (EC1.5 1-25 μM)	< 350	
Cc1ccnc(NC(=O)c2cnn3ccc(-c4ccccc4OC(F)(F)F)nc23)c1 [Compound 604]	A (EC1.5<1 μM)	≥ 350	B (EC1.5 1-25 μM)	< 350	
O=C(Nc1cnc2ccc(-c3ccccc3F)nn12)c1cccc(OCC(O)CO)n1 (stereo not drawn) [Compound 305]	B (EC1.5 1-25 μM)	< 350	A (EC1.5<1 μM)	< 350	
Cc1nc(C(=O)Nc2cnc3cc(C)c(-c4ccccc4C(F)(F)F)nn23)c(C)s1 [Compound 445]					TAMRA EC1.5 (SIRT1 [1]; [7]): A (EC1.5<1 μM); Emax (SIRT1 [1]; [8]): ≥ 350%; Trp EC1.5 (SIRT1 [2]; [9]): B (EC1.5 1-25 μM); Emax (SIRT1 [2]; [10]): < 350%
O=C(Nc1ccncn1)c1cnc2ccc(-c3ccccc3OC[C@H](O)CO)nn12 [Compound 833]	B (EC1.5 1-25 μM)	≥ 350	B (EC1.5 1-25 μM)	< 350	
O=C(Nc1cnc2ccc(-c3ccccc3C(F)(F)F)nn12)c1ncccc1F [Compound 439]					TAMRA EC1.5 (SIRT1 [1]; [7]): A (EC1.5<1 μM); Emax (SIRT1 [1]; [8]): ≥ 350%; Trp EC1.5 (SIRT1 [2]; [9]): A (EC1.5<1 μM); Emax (SIRT1 [2]; [10]): < 350%
O=C(Nc1ncc(CN2CCOCC2)s1)c1cnc2ccc(-c3ccccc3C(F)(F)F)nn12 [Compound 150]					TAMRA EC1.5 (μM) (SIRT1 [1]; [11]): B (EC1.5 1-25 μM); Emax (SIRT1 [1]; [12]): < 350%; Trp EC1.5 (μM) (SIRT1 [2]; [13]): B (EC1.5 1-25 μM); Emax (SIRT1 [2]; [14]): < 350%

Further lines, with some results ahead:

TAMRA EC1.5 (μM) (SIRT1 [1]; [3])	Emax (SIRT1 [1]; [4]) [%]	Trp EC1.5 (μM) (SIRT1 [2]; [5])	Emax (SIRT1 [2]; [6]) [%]	SMILES	other results
B (EC1.5 1-25 μM)	< 350	B (EC1.5 1-25 μM)	< 350	O=C(Nc1ccnc(OCC(F)(F)F)c1)c1cnc2ccc(-c3ccccc3C(F)(F)F)nn12 [Compound 296]	
A (EC1.5<1 μM)	≥ 350	A (EC1.5<1 μM)	≥ 350	CC1(COc2ccnc(NC(=O)c3cnc4ccc(-c5ccccc5C(F)(F)F)nn34)n2)COC1 [Compound 340]	
A (EC1.5<1 μM)	≥ 350	A (EC1.5<1 μM)	≥ 350	Cc1cc(NC(=O)c2cnc3ccc(-c4ccccc4OC(F)(F)F)nn23)ccn1 [Compound 364]	
B (EC1.5 1-25 μM)	< 350	A (EC1.5<1 μM)	≥ 350	Cc1ncccc1NC(=O)c1cnn2ccc(-c3ccccc3C(F)(F)F)nc12 [Compound 630]	
B (EC1.5 1-25 μM)	≥ 350	C (EC1.5>25 μM)	< 350	O=C(Nc1cnn2ccc(-c3ccccc3C(F)(F)F)nc12)c1ccncn1 [Compound 254]	
B (EC1.5 1-25 μM)	< 350	C (EC1.5>25 μM)	< 350	Cc1nc2ccc(-c3ccccc3Cl)nn2c1NC(=O)c1ccccn1 [Compound 346]	
A (EC1.5<1 μM)	≥ 350	B (EC1.5 1-25 μM)	< 350	O=C(Nc1cnc2ccc(-c3ccccc3C(F)(F)F)nn12)c1cnc(O)cn1 [Compound 704]	
A (EC1.5<1 μM)	≥ 350	A (EC1.5<1 μM)	< 350	Cc1nc2c(C)cc(-c3ccccc3C(F)(F)F)nn2c1C(=O)Nc1ccnc(C(C)(C)C)n1 [Compound 731]	
